Laboratory results published in publication PMC13144739, “Global analysis of cancer cell responses to USP9X inhibition” (The EMBO Journal, 2026).
pIC50: −log10 of the molar value.

How the values were obtained:
[1] = target: T1, USP9X catalytic domain (Homo sapiens, UniProt Q93008); experiment: HDX-MS; type: binding; conditions: 6 s deuterium exchange; 80 µM WEHI-092 or 30 µM FT709
T1 construct: His/SUMO (pOPIN-S vector) (N, cleaved yes); made in house; host or cells: E. coli BL21
T1 sequence (Q93008 1551-1970): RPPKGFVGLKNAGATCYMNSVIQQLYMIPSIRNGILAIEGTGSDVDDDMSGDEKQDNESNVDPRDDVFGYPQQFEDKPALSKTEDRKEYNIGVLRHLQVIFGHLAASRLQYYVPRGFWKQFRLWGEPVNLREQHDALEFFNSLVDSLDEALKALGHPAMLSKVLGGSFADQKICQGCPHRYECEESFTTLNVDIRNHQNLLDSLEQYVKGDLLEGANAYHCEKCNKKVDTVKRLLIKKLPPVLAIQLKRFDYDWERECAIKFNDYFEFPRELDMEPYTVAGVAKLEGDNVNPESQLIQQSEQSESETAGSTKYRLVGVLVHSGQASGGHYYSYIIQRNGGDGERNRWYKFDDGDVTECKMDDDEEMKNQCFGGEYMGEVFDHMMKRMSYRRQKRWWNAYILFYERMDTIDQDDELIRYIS
Procedure: Deuterium labelling of USP9X catalytic domain was performed as described previously (Asadollahi et al, [2023]) at 20 °C for periods of 0, 6, 60, 6000 s using a PAL Dual Head HDX Automation manager (Trajan/LEAP) controlled by the ChronosHDX software. […] Quenching was performed by adding 50 µL of the protein mix to 50 µL of quench buffer (50 mM potassium phosphate buffer [pH 2.3], 4 M guanidine hydrochloride and 0.1% [v/v] n-dodecylphosphocholine) at 1 °C. […] To further reduce peptide carryover, n-octyl-β-d-glucopyranoside at 1% (w/w) was added to the pepsin column wash solution (1.5 M guanidine hydrochloride, 4% [v/v] acetonitrile [ACN], 0.8% [v/v] FA). […] For MS, an ion mobility equipped SYNAPT G2-Si mass spectrometer (Waters) was used. Instrument settings were: 3.0 KV capillary and 40 V sampling cone with source and desolvation temperatures of 100 °C and 40 °C, respectively. The desolvation and cone gas flow were at 80 L/h and 100 L/h, respectively. High-energy ramp trap collision energy was from 20 to 40 V. All mass spectra were acquired using a 0.4 s scan time with continuous lock mass (Leu-Enk, 556.2771 m/z) for mass accuracy correction. […] The deuterium uptake values were calculated for each peptide using DynamX 3.0 (Waters). […]

[2] = system: SK-MEL-2 cells; experiment: NCI-60 cancer cell panel, SK-MEL-2; type: cell-based, human; conditions: 10 µM, 3 days
Procedure: (§1) Inhibitors were tested at 10 µM. Data shown is the mean of two technical replicates and is shown relative to the no-drug control, and relative to the time zero number of cells.

[3] = system: UO-31 cell line; experiment: NCI-60 cancer cell panel, UO-31; type: cell-based, human; conditions: 10 µM, 3 days
Procedure: as §1

[4] = target: T2, USP9X Δβ (USP9X β-hairpin deletion) (Homo sapiens, UniProt Q93008, DEL1924-1943); experiment: Ub-Rho cleavage assay, USP9X Δβ variant; type: biochemical
T2 construct: His/SUMO (pOPIN-S vector) (N, cleaved yes); made in house; host or cells: E. coli BL21
T2 sequence (Q93008 with tags, fused parts or gaps DEL1924-1943): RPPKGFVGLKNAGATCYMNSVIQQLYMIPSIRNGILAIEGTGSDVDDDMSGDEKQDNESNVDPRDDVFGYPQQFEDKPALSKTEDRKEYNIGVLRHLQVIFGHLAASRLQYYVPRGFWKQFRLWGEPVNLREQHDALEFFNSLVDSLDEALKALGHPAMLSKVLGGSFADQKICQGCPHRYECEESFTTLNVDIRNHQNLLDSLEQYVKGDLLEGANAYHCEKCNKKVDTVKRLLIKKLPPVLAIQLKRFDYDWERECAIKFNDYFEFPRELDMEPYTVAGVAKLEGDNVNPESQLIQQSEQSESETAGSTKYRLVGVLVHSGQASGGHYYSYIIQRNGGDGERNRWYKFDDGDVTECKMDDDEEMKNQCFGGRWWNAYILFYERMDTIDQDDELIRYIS
Description: An expression construct for the USP9X catalytic domain (aa 1551–1970, […]: Q93008-1), was codon optimised for bacterial expression, synthesised in gBlock format (Integrated DNA Technologies) and cloned into the pOPIN-S vector (Berrow et al, [2007]), which was digested with KpnI and HindIII using In-Fusion™ HD cloning (Takara Clontech). […] For the USP9X Δβ catalytic domain a deletion construct ΔE1924-K1943 and for USP9X/USP24 chimera, a construct with USP9X Y1757-A1766 replaced with the USP24 (NCBI Reference Sequence: NP_056121) aa motif […] was used. All constructs were confirmed by Sanger sequencing (AGRF).
The reaction was stopped through the addition of 10 mM citric acid. The assay was performed in 384-well format with a total reaction volume of 16 µL. Data was collected using the ClarioSTAR plate reader (BMG Labtech) at an emission of 535 nm. […] IC50 values presented in our study are the mean of three independent biological repeats unless indicated otherwise.

[5] = system: HDFs; experiment: Colony formation assay, HDF; type: cell-based, human; conditions: 10 µM, 7–12 days
Procedure: (§2) Cells were seeded at low density (200–4000 cells per well) after initial optimisation in a six-well tissue culture-treated plate (Falcon). Twenty-four hours post seeding, media was replaced, and the inhibitor was added. Cells were left to grow into colonies between 7 and 12 days, depending on the cell line. For analysis, the media was removed, and the cells were fixed with 10% (w/v) formalin for 10 min. Colonies were stained with crystal violet (Sigma-Aldrich, 0.5% [w/v] in 20% [v/v] MeOH) for 10 min and washed thrice with distilled H2O. Plates were imaged using the ChemiDoc imaging system (Bio-Rad) and analysed using the ImageJ ColonyArea plugin as described previously (Guzmán et al, [2014]).

[6] = system: MiaPaca2 cells; experiment: Lattice light sheet imaging of mitosis, MiaPaca2; type: cell-based, human; conditions: 15 µM
Procedure: MDA-MB-231, MiaPaca2, HMEC-1, SK-MEL-2 and UO-31 cells were seeded at 2–15 × 10^4 cells/mL in 8-well glass µ-slides (ibidi). […] SPY650-Tubulin, SPY555-DNA (both Spirochrome, Inc.), and Annexin V FITC (Sigma-Aldrich) were added at a final concentration of 1 in 1000. Cells were left to grow for 24 h before time-lapse live-cell data were acquired using a Lattice Light Sheet 7 (Zeiss). […] Aberration correction was set to a value of 170 to minimise aberrations as determined by imaging the Point Spread Function using 100 nm fluorescent microspheres. Data were collected with a frame time of 10 ms and a z step of 0.4 μm with 834 frames per 290 μm by 290 μm. Individual regions were imaged in parallel across six wells of the eight-well chamber slide. Data are presented as Maximum Intensity Projections (MIPs), and these MIPs were used for all downstream analysis. Tile regions were imaged for 24 h with 10 min intervals at 37 °C, 5% CO2. Analysis was performed using the MIPs of the different full fields of cells over the 24–48 h time period. Mitosis and mitosis arrest were classified through a combination of automated image analysis and manual validation. […] Small erroneous detected spots were further removed through a manually adjusted size filter. […] The mean intensity of all tracks was then measured to determine mitosis and mitosis arrest. […]

[7] = system: HUVEC; experiment: Colony formation assay, HUVEC; type: cell-based, human; conditions: 10 µM, 7–12 days
Procedure: as §2

**Q.** For `Cc1[nH]c2ccc(C(=O)N3CCN(S(=O)(=O)c4ccc5c(c4)OCCO5)CC3)cc2c1C` [WEHI-092], which “changes in hydrogen-deuterium uptake upon compound binding” value [1] is on record?
**A.** protection of five overlapping peptides that included residues 1757-1762

**Q.** What about the “cell growth, SK-MEL-2” value [2] of the same compound?
**A.** stalling cell growth completely

**Q.** And the “cell killing, UO-31” value [3]?
**A.** cell death

**Q.** What about the pIC50 [4] of the same compound?
**A.** 6.61

**Q.** And the “clonogenic potential, HDF” value [5]?
**A.** limited or no effects

**Q.** What about the “apoptosis on metaphase arrest (Annexin V uptake), MiaPaca2” value [6] of the same compound?
**A.** did not trigger apoptosis

**Q.** What about the “cell division phenotype, MiaPaca2” value ([6]; imaged 24-48 h) of the same compound?
**A.** significant defects in cell division

**Q.** And the “clonogenic potential, HUVEC” value [7]?
**A.** limited or no effects
